Source: the supplement of paper PMC11061612

Columns and labels:
Assay in all cases: combination Emax (second highest fraction inhibited in the dose matrix, 72 h); higher = more inhibition; extreme values may be limits of the assay
[1] = system: CAL-39 (Other Solid Carcinomas)
Procedure, shortened: (§1)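 Cell lines grown in DMEM/F12 or RPMI with 10% FBS were plated in 1536-well plates and held 24 hours at 37°C, 5% CO2 before 72 hours of exposure to two-drug dose matrices, with DMSO typically at 0.2%. CellTiter-Glo 2.0 luminescence gave viability, which was converted to inhibition. Vehicle wells were set to 0 and blank wells to 1. Combination Emax is the second-highest inhibition in the matrix, and Bliss excess is the observed combination effect minus the expected EA + EB − EA·EB, where EA and EB are the single-agent effects.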

[2] = system: CS1 (Chondrosarcoma)
Procedure, shortened: as §1

[3] = system: D-283MED (Other Solid Carcinomas)
Procedure, shortened: as §1

[4] = system: D-392MG (Glioblastoma)
Procedure, shortened: as §1

[5] = system: DOK (Oral Cavity Carcinoma)
Procedure, shortened: as §1

[6] = system: EFM-192A (Breast Carcinoma)
Procedure, shortened: as §1

[7] = system: EW-22 (Ewing's Sarcoma)
Procedure, shortened: as §1

[8] = system: GDM-1 (Acute Myeloid Leukemia)
Procedure, shortened: as §1

[9] = system: HCC-827 (Lung Adenocarcinoma)
Procedure, shortened: as §1

[10] = system: HCC1143 (Breast Carcinoma)
Procedure, shortened: as §1

[11] = system: HLE (Hepatocellular Carcinoma)
Procedure, shortened: as §1

[12] = system: HuO9 (Osteosarcoma)
Procedure, shortened: as §1

[13] = system: JHH-6 (Hepatocellular Carcinoma)
Procedure, shortened: as §1

[14] = system: MSTO-211H (Mesothelioma)
Procedure, shortened: as §1

[15] = system: NCI-H1688 (Small Cell Lung Carcinoma)
Procedure, shortened: as §1

[16] = system: PA-TU-8902 (Pancreatic Carcinoma)
Procedure, shortened: as §1

[17] = system: SK-MEL-1 (Melanoma)
Procedure, shortened: as §1

[18] = system: SNG-M (Endometrial Carcinoma)
Procedure, shortened: as §1

[19] = system: SW948 (Colorectal Carcinoma)
Procedure, shortened: as §1

[20] = system: YT (Other Blood Carcinomas)
Procedure, shortened: as §1

Row | Structure (SMILES) | combination Emax [1] | combination Emax [2] | combination Emax [3] | combination Emax [4] | combination Emax [5] | combination Emax [6] | combination Emax [7] | combination Emax [8] | combination Emax [9] | combination Emax [10] | combination Emax [11] | combination Emax [12] | combination Emax [13] | combination Emax [14] | combination Emax [15] | combination Emax [16] | combination Emax [17] | combination Emax [18] | combination Emax [19] | combination Emax [20]
1 | Cc1c2c(nn1C)CSCc1cc(n(C)n1)CSc1cc(c3ccccc3c1)OCCCc1c(C(=O)O)n(C)c3c-2c(Cl)ccc13 [AZD5991] + Cn1cnc2c(F)c(Nc3ccc(Br)cc3Cl)c(C(=O)NOCCO)cc21 [Selumetinib] (first compound max 1 µM, 7x7, partner max 3 µM) | 0.874 | 0.224 | 0.237 | 0.364 | 0.903 | 0.511 | 0.566 | 0.374 | 0.201 | 0.383 | 0.326 | 1 | 0.253 | 0.264 | 0.411 | 0.293 | 0.912 | 0.233 | 0.69 | 1
2 | Cc1cc2ncnn2cc1Nc1ncc2c(n1)n(C1CCOCC1)c(=O)n2C [AZD7648] + C=CCn1c(=O)c2cnc(Nc3ccc(N4CCN(C)CC4)cc3)nc2n1-c1cccc(C(C)(C)O)n1 [AZD1775] (first compound max 10 µM, partner max 1 µM) | 0.462 | 0.541 | 0.957 | 0.397 | 0.482 | 0.455 | 0.602 | 0.894 | 0.497 | 0.603 | 0.66 | 0.724 | 0.311 | 0.612 | 0.586 | 0.348 | 0.399 | 0.645 | 0.83 | 0.89
3 | Cc1cc2ncnn2cc1Nc1ncc2c(n1)n(C1CCOCC1)c(=O)n2C [AZD7648] + CCN(CCO)CCCOc1ccc2c(Nc3cc(CC(=O)Nc4cccc(F)c4)[nH]n3)ncnc2c1 [AZD2811] (first compound max 10 µM, 7x7, partner max 1 µM) | 0.433 | 0.343 | 0.74 | 0.329 | 0.47 | 0.345 | 0.698 | 0.859 | 0.24 | 0.403 | 0.433 | 0.369 | 0.339 | 0.469 | 0.201 | 0.309 | 0.3 | 0.281 | 0.737 | 0.624
4 | Cc1cc2ncnn2cc1Nc1ncc2c(n1)n(C1CCOCC1)c(=O)n2C [AZD7648] + CN(C)CCCOc1ccc(-c2ccc3ncc4c(c3c2)n(C2CCOCC2)c(=O)n4C)cn1 [AZD0156] (first compound max 10 µM, 7x7, partner max 1 µM) | 0.322 | 0.306 | 0.496 | 0.301 | 0.249 | 0.374 | 0.467 | 0.657 | 0.297 | 0.242 | 0.31 | 0.369 | 0.279 | 0.33 | 0.147 | 0.227 | 0.347 | 0.205 | 0.545 | 0.705
5 | Cc1cc2ncnn2cc1Nc1ncc2c(n1)n(C1CCOCC1)c(=O)n2C [AZD7648] + C[C@@H]1COCCN1C2=NC(=NC(=C2)C3(CC3)[S@](=N)(=O)C)C4=C5C=CNC5=NC=C4 [AZD6738] (first compound max 10 µM, 7x7, partner max 10 µM) | 0.485 | 0.591 | 0.988 | 0.52 | 0.453 | 0.292 | 0.851 | 0.789 | 0.5 | 0.853 | 0.721 | 0.756 | 0.333 | 0.681 | 0.251 | 0.24 | 0.293 | 0.939 | 0.578 | 0.833
6 | NC1(C(=O)N[C@@H](CCO)c2ccc(Cl)cc2)CCN(c2ncnc3[nH]ccc23)CC1 [Capivasertib] + CC(=O)c1c(C)c2cnc(Nc3ccc(N4CCNCC4)cn3)nc2n(C2CCCC2)c1=O [Palbociclib] (first compound max 10 µM, 7x7, partner max 10 µM) | 0.672 | 0.442 | 0.634 | 0.436 | 0.596 | 0.432 | 0.575 | 0.623 | 0.344 | 0.498 | 0.164 | 0.541 | 0.501 | 0.261 | 0.224 | 0.409 | 0.141 | 0.501 | 0.57 | 0.68
7 | NC1(C(=O)N[C@@H](CCO)c2ccc(Cl)cc2)CCN(c2ncnc3[nH]ccc23)CC1 [Capivasertib] + CC(C)n1c(=O)n(C)c2cnc3cc(F)c(-c4ccc(OCCCN5CCCCC5)nc4)cc3c21 [AZD1390] (first compound max 10 µM, 7x7, partner max 0.3 µM) | 0.457 | 0.298 | 0.475 | 0.228 | 0.5 | 0.402 | 0.437 | 0.401 | 0.322 | 0.174 | 0.194 | 0.509 | 0.309 | 0.213 | 0.296 | 0.278 | 0.226 | 0.29 | 0.575 | 0.336
8 | NC1(C(=O)N[C@@H](CCO)c2ccc(Cl)cc2)CCN(c2ncnc3[nH]ccc23)CC1 [Capivasertib] + CCN(CCO)CCCOc1ccc2c(Nc3cc(CC(=O)Nc4cccc(F)c4)[nH]n3)ncnc2c1 [AZD2811] (first compound max 10 µM, 7x7, partner max 1 µM) | 0.55 | 0.417 | 0.737 | 0.332 | 0.592 | 0.449 | 0.78 | 0.837 | 0.35 | 0.287 | 0.33 | 0.464 | 0.4 | 0.379 | 0.309 | 0.348 | 0.292 | 0.363 | 0.769 | 0.456
9 | NC1(C(=O)N[C@@H](CCO)c2ccc(Cl)cc2)CCN(c2ncnc3[nH]ccc23)CC1 [Capivasertib] + COc1nnc2ccc(N3CCC(c4ccc(OCCN5CCN(C)C(=O)[C@H]5C)cc4)CC3)nn12 [AZD5153] (first compound max 10 µM, 7x7, partner max 1 µM) | 0.787 | 0.455 | 0.771 | 0.512 | 0.768 | 0.504 | 0.834 | 0.79 | 0.481 | 0.325 | 0.389 | 0.841 | 0.645 | 0.258 | 0.406 | 0.326 | 0.681 | 0.749 | 0.699 | 0.792
10 | NC1(C(=O)N[C@@H](CCO)c2ccc(Cl)cc2)CCN(c2ncnc3[nH]ccc23)CC1 [Capivasertib] + C[C@@H]1COCCN1C2=NC(=NC(=C2)C3(CC3)[S@](=N)(=O)C)C4=C5C=CNC5=NC=C4 [AZD6738] (first compound max 10 µM, 7x7, partner max 10 µM) | 0.653 | 0.621 | 0.975 | 0.464 | 0.601 | 0.581 | 0.908 | 0.734 | 0.576 | 0.725 | 0.605 | 0.79 | 0.506 | 0.304 | 0.445 | 0.544 | 0.296 | 0.888 | 0.675 | 0.838
11 | NC1(C(=O)N[C@@H](CCO)c2ccc(Cl)cc2)CCN(c2ncnc3[nH]ccc23)CC1 [Capivasertib] + Cn1cnc2c(F)c(Nc3ccc(Br)cc3Cl)c(C(=O)NOCCO)cc21 [Selumetinib] (first compound max 10 µM, 7x7, partner max 10 µM) | 0.762 | 0.502 | 0.548 | 0.484 | 0.931 | 0.436 | 0.543 | 0.73 | 0.6 | 0.317 | 0.236 | 0.509 | 0.458 | 0.379 | 0.372 | 0.557 | 0.874 | 0.648 | 0.829 | 0.446
12 | Cc1nc(Nc2ncc(C(=O)Nc3c(C)cccc3Cl)s2)cc(N2CCN(CCO)CC2)n1 [Dasatinib] + CC(=O)Nc1cccc(-n2c(=O)n(C3CC3)c(=O)c3c(Nc4ccc(I)cc4F)n(C)c(=O)c(C)c32)c1 [Trametinib] (first compound max 2 µM, 7x7, partner max 1 µM) | 0.944 | 0.568 | 0.419 | 0.627 | 0.904 | 0.122 | 0.0877 | 0.76 | 0.947 | 0.657 | 0.414 | 0.541 | 0.611 | 0.747 | 0.249 | 0.589 | 0.854 | 0.798 | 0.764 | 0.318
13 | COc1cccc2c1C(=O)c1c(O)c3c(c(O)c1C2=O)C[C@@](O)(C(=O)CO)C[C@@H]3O[C@H]1C[C@H](N)[C@H](O)[C@H](C)O1 [Doxorubicin] + Cc1cc2ncnn2cc1Nc1ncc2c(n1)n(C1CCOCC1)c(=O)n2C [AZD7648] (first compound max 1 µM, 7x7, partner max 10 µM) | 0.654 | 0.772 | 0.943 | 0.586 | 0.697 | 0.368 | 0.947 | 0.975 | 0.72 | 0.518 | 0.812 | 0.897 | 0.496 | 0.813 | 0.732 | 0.372 | 0.593 | 0.767 | 0.52 | 0.862
